In patent publication US20100035755A1, “METHOD OF CONTROLLING WEEDS IN A TURF GRASS BY USING SULFONYLUREA COMPOUNDS” (Moghu Research Center Ltd., priority 2008, published 2010):

Tests used:
Bentgrass = test: Turf grass selectivity, greenhouse pot test; format: in vivo, Agrostris palustris
Source text: (§1) Turf mats of Zoysia grass, bentgrass, Kentucky bluegrass, or perennial rye grass known as cool season turfgrass or western grass were purchased and cut into a piece having 10 cm×20 cm size. Then, each piece was transplanted in a rectangular plastic pot (surface area of 300 cm^2) in which sandy loam and mixed top soil (Boo-Nong Top Soil No. 3, for horticultural use) are filled in 1:1 ratio. After the transplantation, the grasses were cut once a week to maintain the blade height at 0.5-1.0 cm and cultivated for one month in a green house of which temperature was kept at 25˜30° C. for daytime and 15˜25° C. for nighttime, respectively. Then, the ‘test chemical’ of the above Examples 1 and 2 or ‘control chemical’ was applied thereto in an amount of 400, 200, 100, 50, 25, 12, 6, 3 g ai/ha. As a “control chemical”, pyrazolsulfuron ethyl wettable agent (manufactured by Dongbu Fine Chemicals; herein after, referred to as ‘control chemical No. 1’) and flazasulfuron (manufactured by Dongbu HiTek; herein after, referred to as ‘control chemical No. 2’), both sulfonylurea herbicides for a turf grass, were used. Application was carried out by using a track sprayer (R&D Sprayer, USA) equipped with Teejet 8002 nozzle (Spraying Systems Co., USA), and the application amount was adjusted to 2,000 L/ha, which is a typical application amount for a golf course in Korea. Application solution was prepared by diluting the “test chemical” or the “control chemical” with tap water. […] The test was repeated three times in a random arrangement and the results are given in average value of each test (see Table 2 below).

Kentucky bluegrass = test: Turf grass selectivity, greenhouse pot test; format: in vivo, Poa pratensis
Source text: as §1

Cyperus amuricus = test: Weed spectrum, greenhouse pot test; format: in vivo; details: two weeks after application
Source text: (§2) To a rectangular plastic pot (surface area of 300 cm^2) in which sandy loam and mixed top soil (Boo-Nong Top Soil No. 3, for horticultural use) are filled in 1:1 ratio, eight different kinds of weed seeds including Poa annua and Digitaria sanguinalis as poaceae weed, Cyperus amuricus as cyperaceae weeds and Trifolium repens, Kummerowia striata, fleabane, Veronica officinalis and Portulaca oleracea as broadleaf weeds were sewn (50 to 100 seeds per each weed). These weeds are representative examples of the weeds which typically thrive in a turf grass field.
(§3) The pot was kept in a greenhouse which was maintained at 25˜30° C. for daytime and 15˜25° C. for nighttime, respectively, and irrigation was carried out regularly. Fourteen days after seeding, when the turf grass and the weeds reached approximately at three-leaf stage, the weed seeds were again sewn in separate two pots or “Test chemical” and “Control chemical” were applied in the same manner as the method described above. In this regard, when plants were cultivated for two weeks and then the chemical application was carried out, it is designated as “post-emergence” treatment. On the other than, when the seeding was carried right before the chemical application, it is designated as “pre-emergence” treatment. Preparation of a chemical solution, application method, etc. are the same as above described for evaluation of turf grass selectivity. Two weeks after the chemical application, efficacy of the chemicals for each type of the weeds was evaluated (visual evaluation) based on 0 to 100 scale (i.e., 0 indicates no efficacy and 100 indicates complete weed control).

Digitaria sanguinalis = test: Weed spectrum, greenhouse pot test; format: in vivo; details: two weeks after application
Source text: as §2, §3

Kummerowia striata = test: Weed spectrum, greenhouse pot test; format: in vivo; details: two weeks after application
Source text: as §2, §3

Poa annua = test: Weed spectrum, greenhouse pot test; format: in vivo; details: two weeks after application
Source text: as §2, §3

Portulaca oleracea = test: Weed spectrum, greenhouse pot test; format: in vivo; details: two weeks after application
Source text: as §2, §3

Trifolium repens = test: Weed spectrum, greenhouse pot test; format: in vivo; details: two weeks after application
Source text: as §2, §3

Veronica officinalis = test: Weed spectrum, greenhouse pot test; format: in vivo; details: two weeks after application
Source text: as §2, §3

Cc1cc(C)nc(NC(=O)NS(=O)(=O)c2ccccc2C(O)C(C)F)n1 (stereo not shown) [Example 1]
phytotoxicity (visual assessment 0-10) (Bentgrass; 3 g ai/ha, 2 weeks): 0
phytotoxicity (visual assessment 0-10) (Bentgrass; 3 g ai/ha, 4 weeks): 0
phytotoxicity (visual assessment 0-10) (Bentgrass; 6 g ai/ha, 2 weeks): 0
phytotoxicity (visual assessment 0-10) (Bentgrass; 6 g ai/ha, 4 weeks): 0
phytotoxicity (visual assessment 0-10) (Bentgrass; 12 g ai/ha, 2 weeks): 0
phytotoxicity (visual assessment 0-10) (Bentgrass; 12 g ai/ha, 4 weeks): 0
phytotoxicity (visual assessment 0-10) (Bentgrass; 25 g ai/ha, 2 weeks): 0
phytotoxicity (visual assessment 0-10) (Bentgrass; 25 g ai/ha, 4 weeks): 0
phytotoxicity (visual assessment 0-10) (Bentgrass; 50 g ai/ha, 2 weeks): 0
phytotoxicity (visual assessment 0-10) (Bentgrass; 50 g ai/ha, 4 weeks): 0
phytotoxicity (visual assessment 0-10) (Bentgrass; 100 g ai/ha, 2 weeks): 1
phytotoxicity (visual assessment 0-10) (Bentgrass; 100 g ai/ha, 4 weeks): 0
phytotoxicity (visual assessment 0-10) (Bentgrass; 200 g ai/ha, 2 weeks): 2
phytotoxicity (visual assessment 0-10) (Bentgrass; 200 g ai/ha, 4 weeks): 1
phytotoxicity (visual assessment 0-10) (Bentgrass; 400 g ai/ha, 2 weeks): 3
phytotoxicity (visual assessment 0-10) (Bentgrass; 400 g ai/ha, 4 weeks): 2
phytotoxicity (visual assessment 0-10) (Kentucky bluegrass; 3 g ai/ha, 2 weeks): 0
phytotoxicity (visual assessment 0-10) (Kentucky bluegrass; 3 g ai/ha, 4 weeks): 0
phytotoxicity (visual assessment 0-10) (Kentucky bluegrass; 6 g ai/ha, 2 weeks): 0
phytotoxicity (visual assessment 0-10) (Kentucky bluegrass; 6 g ai/ha, 4 weeks): 0
phytotoxicity (visual assessment 0-10) (Kentucky bluegrass; 12 g ai/ha, 2 weeks): 0
phytotoxicity (visual assessment 0-10) (Kentucky bluegrass; 12 g ai/ha, 4 weeks): 0
phytotoxicity (visual assessment 0-10) (Kentucky bluegrass; 25 g ai/ha, 2 weeks): 0
phytotoxicity (visual assessment 0-10) (Kentucky bluegrass; 25 g ai/ha, 4 weeks): 0
phytotoxicity (visual assessment 0-10) (Kentucky bluegrass; 50 g ai/ha, 2 weeks): 0
phytotoxicity (visual assessment 0-10) (Kentucky bluegrass; 50 g ai/ha, 4 weeks): 0
phytotoxicity (visual assessment 0-10) (Kentucky bluegrass; 100 g ai/ha, 2 weeks): 0
phytotoxicity (visual assessment 0-10) (Kentucky bluegrass; 100 g ai/ha, 4 weeks): 0
phytotoxicity (visual assessment 0-10) (Kentucky bluegrass; 200 g ai/ha, 2 weeks): 1
phytotoxicity (visual assessment 0-10) (Kentucky bluegrass; 200 g ai/ha, 4 weeks): 0
phytotoxicity (visual assessment 0-10) (Kentucky bluegrass; 400 g ai/ha, 2 weeks): 2
phytotoxicity (visual assessment 0-10) (Kentucky bluegrass; 400 g ai/ha, 4 weeks): 1
efficacy (0-100 scale) (Cyperus amuricus; Post-emergence, 12 g ai/ha): 90
efficacy (0-100 scale) (Cyperus amuricus; Post-emergence, 25 g ai/ha): 95
efficacy (0-100 scale) (Cyperus amuricus; Post-emergence, 50 g ai/ha): 100
efficacy (0-100 scale) (Cyperus amuricus; Post-emergence, 100 g ai/ha): 100
efficacy (0-100 scale) (Cyperus amuricus; Pre-emergence, 12 g ai/ha): 90
efficacy (0-100 scale) (Cyperus amuricus; Pre-emergence, 25 g ai/ha): 95
efficacy (0-100 scale) (Cyperus amuricus; Pre-emergence, 50 g ai/ha): 100
efficacy (0-100 scale) (Cyperus amuricus; Pre-emergence, 100 g ai/ha): 100
efficacy (0-100 scale) (Digitaria sanguinalis; Post-emergence, 12 g ai/ha): 60
efficacy (0-100 scale) (Digitaria sanguinalis; Post-emergence, 25 g ai/ha): 70
efficacy (0-100 scale) (Digitaria sanguinalis; Post-emergence, 50 g ai/ha): 90
efficacy (0-100 scale) (Digitaria sanguinalis; Post-emergence, 100 g ai/ha): 100
efficacy (0-100 scale) (Digitaria sanguinalis; Pre-emergence, 12 g ai/ha): 60
efficacy (0-100 scale) (Digitaria sanguinalis; Pre-emergence, 25 g ai/ha): 85
efficacy (0-100 scale) (Digitaria sanguinalis; Pre-emergence, 50 g ai/ha): 100
efficacy (0-100 scale) (Digitaria sanguinalis; Pre-emergence, 100 g ai/ha): 100
efficacy (0-100 scale) (Kummerowia striata; Post-emergence, 12 g ai/ha): 70
efficacy (0-100 scale) (Kummerowia striata; Post-emergence, 25 g ai/ha): 70
efficacy (0-100 scale) (Kummerowia striata; Post-emergence, 50 g ai/ha): 100
efficacy (0-100 scale) (Kummerowia striata; Post-emergence, 100 g ai/ha): 100
efficacy (0-100 scale) (Kummerowia striata; Pre-emergence, 12 g ai/ha): 70
efficacy (0-100 scale) (Kummerowia striata; Pre-emergence, 25 g ai/ha): 90
efficacy (0-100 scale) (Kummerowia striata; Pre-emergence, 50 g ai/ha): 90
efficacy (0-100 scale) (Kummerowia striata; Pre-emergence, 100 g ai/ha): 100
efficacy (0-100 scale) (Poa annua; Post-emergence, 12 g ai/ha): 10
efficacy (0-100 scale) (Poa annua; Post-emergence, 25 g ai/ha): 30
efficacy (0-100 scale) (Poa annua; Post-emergence, 50 g ai/ha): 50
efficacy (0-100 scale) (Poa annua; Post-emergence, 100 g ai/ha): 70
efficacy (0-100 scale) (Poa annua; Pre-emergence, 12 g ai/ha): 50
efficacy (0-100 scale) (Poa annua; Pre-emergence, 25 g ai/ha): 60
efficacy (0-100 scale) (Poa annua; Pre-emergence, 50 g ai/ha): 70
efficacy (0-100 scale) (Poa annua; Pre-emergence, 100 g ai/ha): 80
efficacy (0-100 scale) (Portulaca oleracea; Post-emergence, 12 g ai/ha): 70
efficacy (0-100 scale) (Portulaca oleracea; Post-emergence, 25 g ai/ha): 90
efficacy (0-100 scale) (Portulaca oleracea; Post-emergence, 50 g ai/ha): 100
efficacy (0-100 scale) (Portulaca oleracea; Post-emergence, 100 g ai/ha): 100
efficacy (0-100 scale) (Portulaca oleracea; Pre-emergence, 12 g ai/ha): 90
efficacy (0-100 scale) (Portulaca oleracea; Pre-emergence, 25 g ai/ha): 90
efficacy (0-100 scale) (Portulaca oleracea; Pre-emergence, 50 g ai/ha): 100
efficacy (0-100 scale) (Portulaca oleracea; Pre-emergence, 100 g ai/ha): 100
efficacy (0-100 scale) (Trifolium repens; Post-emergence, 12 g ai/ha): 40
efficacy (0-100 scale) (Trifolium repens; Post-emergence, 25 g ai/ha): 50
efficacy (0-100 scale) (Trifolium repens; Post-emergence, 50 g ai/ha): 60
efficacy (0-100 scale) (Trifolium repens; Post-emergence, 100 g ai/ha): 60
efficacy (0-100 scale) (Trifolium repens; Pre-emergence, 12 g ai/ha): 30
efficacy (0-100 scale) (Trifolium repens; Pre-emergence, 25 g ai/ha): 50
efficacy (0-100 scale) (Trifolium repens; Pre-emergence, 50 g ai/ha): 70
efficacy (0-100 scale) (Trifolium repens; Pre-emergence, 100 g ai/ha): 70
efficacy (0-100 scale) (Veronica officinalis; Post-emergence, 12 g ai/ha): 20
efficacy (0-100 scale) (Veronica officinalis; Post-emergence, 25 g ai/ha): 20
efficacy (0-100 scale) (Veronica officinalis; Post-emergence, 50 g ai/ha): 20
efficacy (0-100 scale) (Veronica officinalis; Post-emergence, 100 g ai/ha): 20
efficacy (0-100 scale) (Veronica officinalis; Pre-emergence, 12 g ai/ha): 30
efficacy (0-100 scale) (Veronica officinalis; Pre-emergence, 25 g ai/ha): 30
efficacy (0-100 scale) (Veronica officinalis; Pre-emergence, 50 g ai/ha): 40
efficacy (0-100 scale) (Veronica officinalis; Pre-emergence, 100 g ai/ha): 50
